According to ChEMBL document CHEMBL1795228, “Air to lung partition coefficients for volatile organic compounds and blood to lung partition coefficients for volatile organic compounds and drugs” (Eur J Med Chem, 2008):

Tests used:
[1] = In-vivo blood to lung partition coefficients of the compound, logP(lung) in rat; format: ADME
[2] = In-vivo serum to lung partition coefficients of the compound, logP(lung) in rat; format: ADME; conditions: octanol/water
[3] = In-vivo blood/plasma to lung partition coefficients of the compound, logP(lung) in rat; format: ADME, cell-free; conditions: octanol/water
[4] = In-vitro air to lung partition coefficients of the compound, logK(lung) (human/rat); conditions: octanol/water
[5] = In-vitro air to blood partition coefficients of the compound, logK(blood) (human/rat); conditions: octanol/water
[6] = In-vitro blood to lung partition coefficients of the compound, logP(lung) (human/rat)

| Compound | logP(lung) [1] | logK(lung) [4] | logK(blood) [5] | logP(lung) [6] | further results |
| --- | --- | --- | --- | --- | --- |
| COc1ccc(CCCn2ncc3c2nc(N)n2nc(-c4ccco4)nc32)cc1 | 0.62 |  |  |  |  |
| COC(=O)Nc1nc2cc(C(=O)N3CCN(c4ccccn4)CC3)ccc2[nH]1 |  |  |  |  | logP(lung) [2]: -0.29 |
| C=CC(=O)O [ACRYLIC ACID] | 0.14 |  |  |  |  |
| CC[C@H]1OC(=O)[C@H](C)[C@@H](O[C@H]2C[C@@](C)(OC)[C@@H](O)[C@H](C)O2)[C@H](C)[C@@H](O[C@@H]2O[C@H](C)C[C@H](N(C)C)[C@H]2O)[C@](C)(O)C[C@@H](C)CN(C)[C@H](C)[C@@H](O)[C@]1(C)O [AZITHROMYCIN] |  |  |  |  | logP(lung) [2]: 2.08 |
| CN(C)CCCN1c2ccccc2Sc2ccc(Cl)cc21 [CHLORPROMAZINE] | 1.81 |  |  |  |  |
| CN(C)CCCN1c2ccccc2CCc2ccc(Cl)cc21 [CLOMIPRAMINE] | 2.16 |  |  |  |  |
| CCc1cc2c(s1)N(C)C(=O)CN=C2c1ccccc1Cl [CLOTIAZEPAM] | 1.04 |  |  |  |  |
| CC[C@H]1OC(=O)[C@H](C)[C@@H](O[C@H]2C[C@@](C)(OC)[C@@H](O)[C@H](C)O2)[C@H](C)[C@@H](O[C@@H]2O[C@H](C)C[C@H](N(C)C)[C@H]2O)[C@](C)(O)C[C@@H](C)C(=O)[C@H](C)[C@@H](O)[C@]1(C)O [ERYTHROMYCIN] |  |  |  |  | logP(lung) [2]: 1.62 |
| O=C(CCCN1CCC(O)(c2ccc(Cl)cc2)CC1)c1ccc(F)cc1 [HALOPERIDOL] | 1.73 |  |  |  |  |
| Oc1ccc(O)cc1 [HYDROQUINONE] | -0.16 |  |  |  |  |
| OCCOCCN1CCN(C(c2ccccc2)c2ccc(Cl)cc2)CC1 (stereo not given) [HYDROXYZINE] | 1.06 |  |  |  |  |
| COCCc1ccc(OCC(O)CNC(C)C)cc1 (stereo not given) [METOPROLOL] | 1.06 |  |  |  |  |
| Cc1ncc2n1-c1ccc(Cl)cc1C(c1ccccc1F)=NC2 [MIDAZOLAM] |  |  |  |  | logP(lung) [3]: 0.6 |
| O=C1CN=C(c2ccccc2)c2cc([N+](=O)[O-])ccc2N1 [NITRAZEPAM] | 0.26 |  |  |  |  |
| C1CO1 [OXIRANE] |  | 1.79 | 1.8 | -0.01 |  |
| C=CCOc1ccccc1OCC(O)CNC(C)C (stereo not given) [OXPRENOLOL] |  |  |  |  | logP(lung) [3]: 1.27 |
| O=O [OXYGEN] |  | -1.62 | -1.58 | -0.04 |  |
| CCCCC [PENTANE] |  | -0.3 | -0.29 | -0.01 |  |
| CC(=O)Nc1ccc(OCC(O)CNC(C)C)cc1 (stereo not given) [PRACTOLOL] | 0.48 |  |  |  |  |
| C=CC [PROPENE] |  | -0.24 | -0.21 | -0.03 |  |
| FCOC(C(F)(F)F)C(F)(F)F [SEVOFLURANE] |  | 0.11 | -0.2 | 0.31 |  |
| FS(F)(F)(F)(F)F [SULFUR HEXAFLUORIDE] |  | -2.14 | -2.17 | 0.03 |  |
| ClC(Cl)=C(Cl)Cl [TETRACHLOROETHYLENE] |  | 1.86 | 1.19 | 0.67 |  |
| CC(Cl)(Cl)Cl [TRICHLOROETHANE] |  | 0.67 | 0.63 | 0.04 |  |
| ClC=C(Cl)Cl [TRICHLOROETHYLENE] |  | 1.15 | 1.14 | 0.01 |  |
| CN1CCN(CCCN2c3ccccc3Sc3ccc(C(F)(F)F)cc32)CC1 [TRIFLUOPERAZINE] | 1.33 |  |  |  |  |
| OC(CCN1CCCCC1)(c1ccccc1)C1CCCCC1 (stereo not given) [TRIHEXYPHENIDYL] | 1.87 |  |  |  |  |
